Series [1] addresses T1, Sigma non-opioid intracellular receptor 1 (Homo sapiens, UniProt Q99720). The series can be described thus: Displacement of [125I]-IPAG from sigma1 in human MDA-MB-468 cell membranes. (In a radioligand displacement assay an active substance lowers the binding of a labelled ligand.)
The target in another series is T2, Androgen receptor (Homo sapiens, UniProt P10275).
T2 sequence (P10275 whole entry): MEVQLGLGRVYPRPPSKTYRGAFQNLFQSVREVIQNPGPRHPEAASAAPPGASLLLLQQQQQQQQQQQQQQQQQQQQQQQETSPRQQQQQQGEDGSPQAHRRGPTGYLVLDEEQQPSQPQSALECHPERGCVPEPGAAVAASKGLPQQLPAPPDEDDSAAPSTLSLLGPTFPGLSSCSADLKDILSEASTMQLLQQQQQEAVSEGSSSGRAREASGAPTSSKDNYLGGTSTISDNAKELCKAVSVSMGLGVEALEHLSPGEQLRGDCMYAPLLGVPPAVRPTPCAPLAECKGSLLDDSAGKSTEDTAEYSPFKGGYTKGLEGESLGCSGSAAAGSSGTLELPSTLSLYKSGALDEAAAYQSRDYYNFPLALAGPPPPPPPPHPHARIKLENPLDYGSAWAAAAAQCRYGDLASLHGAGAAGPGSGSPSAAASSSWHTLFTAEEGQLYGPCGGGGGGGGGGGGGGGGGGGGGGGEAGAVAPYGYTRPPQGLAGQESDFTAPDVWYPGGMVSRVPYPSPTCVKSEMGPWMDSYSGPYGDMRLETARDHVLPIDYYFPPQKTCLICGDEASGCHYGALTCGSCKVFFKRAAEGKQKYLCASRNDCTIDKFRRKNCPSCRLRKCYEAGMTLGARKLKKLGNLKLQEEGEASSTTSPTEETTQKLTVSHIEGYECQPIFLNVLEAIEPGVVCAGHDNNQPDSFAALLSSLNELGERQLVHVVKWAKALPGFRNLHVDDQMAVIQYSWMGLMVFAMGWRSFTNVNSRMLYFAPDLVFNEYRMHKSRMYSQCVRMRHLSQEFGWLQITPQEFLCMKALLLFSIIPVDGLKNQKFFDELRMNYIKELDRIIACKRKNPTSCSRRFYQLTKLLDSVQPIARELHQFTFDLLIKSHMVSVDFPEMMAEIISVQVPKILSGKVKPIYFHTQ
The series can be described thus: Antagonist activity at full length human androgen receptor expressed in mammalian expression system measured after 22 to 24 hrs by luciferase reporter gene assay. On the technique in general: In a reporter assay the amount or activity of a reporter protein is the signal.

Series [2] concerns the target T3, Voltage-gated inwardly rectifying potassium channel KCNH2 (Homo sapiens, UniProt Q12809). The series can be described thus: Inhibition of human ERG.
The target of series [3] is T3, Voltage-gated inwardly rectifying potassium channel KCNH2. Description: Inhibition of human ERG expressed in CHOK1 cells by Qpatch clamp method. Background: The patch-clamp technique gives a direct electrical read-out from membranes.
For series [4], the target named is T1, Sigma non-opioid intracellular receptor 1. The series can be described thus: Displacement of [3H]-(+)-pentazocine from sigma1 in human MDA-MB-468 cell membranes.
In series [5] the test system is Plasma. The series can be described thus: Protein binding in mouse plasma. The series is classed as ADME, cell-free.
Series [6] concerns Plasma. The series can be described thus: Protein binding in human plasma. The series is classed as ADME, cell-free.
Series [7] is described as follows: Stability in mouse plasma. As to conditions: read-out: Stability. It counts as ADME, cell-free.
A short description of series [8]: Stability in human plasma. It counts as ADME, cell-free. As to conditions: read-out: Stability.
Series [9] in a line: Stability in mouse liver microsomes. As to conditions: read-out: Stability. The series is classed as ADME, microsome.
Series [10] in a line: Stability in human liver microsomes. The following applies: read-out: Stability. It counts as ADME, microsome.
Series [11] in a line: Solubility of compound in PBS buffer at pH 7.4. It counts as physicochemical.
Another series relates to MDA-MB-468. Description: Antiproliferative activity against human MDA-MB-468 cells at 3 to 20 uM by CellTiter-Glo assay. The series is classed as functional, cell-based.
The nature of series [12]: AUC (0 to infinity) in Swiss mouse plasma at 2 mg/kg, iv. The series is classed as ADME, organism-based. Set-up: dose 2 mg/kg, time infinity, route intravenous.
The nature of series [13]: AUC (0 to infinity) in Swiss mouse plasma at 10 mg/kg, ip. The series is classed as ADME, organism-based. Further details: dose 10 mg/kg, route intraperitoneal, time infinity.
Series [14] is described as follows: AUC (0 to infinity) in Swiss mouse brain at 10 mg/kg, ip. It counts as ADME, organism-based. Set-up: dose 10 mg/kg, time infinity, route intraperitoneal.
Series [15] can be described thus: Volume of distribution in Swiss mouse plasma at 2 mg/kg, iv. The series is classed as ADME, organism-based.
Series [16] can be described thus: Clearance in Swiss mouse plasma at 2 mg/kg, iv.
Series [17] in a line: AUC (0 to infinity) in Swiss mouse plasma at 10 mg/kg, po. It counts as ADME, organism-based. Set-up: dose 10 mg/kg, time infinity, route oral.
Series [18] is described as follows: Half life in Swiss mouse plasma at 10 mg/kg, po.
Series [19] in a line: AUC (0 to infinity) in Swiss mouse plasma at 30 mg/kg, po. The series is classed as ADME, organism-based. Set-up: dose 30 mg/kg, time infinity, route oral.
Series [20] in a line: Half life in Swiss mouse plasma at 30 mg/kg, po.
Series [21] can be described thus: Ratio of drug level in Swiss mouse brain to plasma at 10 mg/kg, ip.
Series [22] relates to Plasma. As to conditions: mouse, in vivo, ip, 10 mg/kg.
In a further series the test system is Brain. As to conditions: mouse, in vivo, ip, 10 mg/kg.
Series [23] in a line: in vivo. As to conditions: Swiss, mouse, plasma, po, 10 mg/kg.
Series [24] is described as follows: in vivo. As to conditions: Swiss, mouse, plasma, po, 10 mg/kg. The source holds these as a separate data set.
Series [25] in a line: in vivo. As to conditions: Swiss, mouse, plasma, po, 10 mg/kg. This is another data set of the same source.
A short description of series [26]: in vivo. The following applies: Swiss, mouse, plasma, po, 30 mg/kg.
The nature of series [27]: in vivo. As to conditions: Swiss, mouse, plasma, po, 30 mg/kg. This is another data set of the same source.
Series [28] can be described thus: in vivo. As to conditions: Swiss, mouse, plasma, po, 30 mg/kg. This is another data set of the same source.

SMILES strings stand for the structures. In brackets after ≈: the same amount, converted by molar mass. Activity calls are given as the source filed them. The calls are words filed in the database; no cut-off is given here.

T1 sequence (Q99720 whole entry): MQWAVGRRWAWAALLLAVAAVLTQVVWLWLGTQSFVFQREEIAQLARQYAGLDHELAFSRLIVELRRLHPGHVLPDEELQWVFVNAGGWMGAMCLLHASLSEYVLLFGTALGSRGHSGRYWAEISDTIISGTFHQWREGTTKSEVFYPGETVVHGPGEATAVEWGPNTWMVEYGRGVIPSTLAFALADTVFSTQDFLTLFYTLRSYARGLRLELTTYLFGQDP
T3 sequence (Q12809 whole entry): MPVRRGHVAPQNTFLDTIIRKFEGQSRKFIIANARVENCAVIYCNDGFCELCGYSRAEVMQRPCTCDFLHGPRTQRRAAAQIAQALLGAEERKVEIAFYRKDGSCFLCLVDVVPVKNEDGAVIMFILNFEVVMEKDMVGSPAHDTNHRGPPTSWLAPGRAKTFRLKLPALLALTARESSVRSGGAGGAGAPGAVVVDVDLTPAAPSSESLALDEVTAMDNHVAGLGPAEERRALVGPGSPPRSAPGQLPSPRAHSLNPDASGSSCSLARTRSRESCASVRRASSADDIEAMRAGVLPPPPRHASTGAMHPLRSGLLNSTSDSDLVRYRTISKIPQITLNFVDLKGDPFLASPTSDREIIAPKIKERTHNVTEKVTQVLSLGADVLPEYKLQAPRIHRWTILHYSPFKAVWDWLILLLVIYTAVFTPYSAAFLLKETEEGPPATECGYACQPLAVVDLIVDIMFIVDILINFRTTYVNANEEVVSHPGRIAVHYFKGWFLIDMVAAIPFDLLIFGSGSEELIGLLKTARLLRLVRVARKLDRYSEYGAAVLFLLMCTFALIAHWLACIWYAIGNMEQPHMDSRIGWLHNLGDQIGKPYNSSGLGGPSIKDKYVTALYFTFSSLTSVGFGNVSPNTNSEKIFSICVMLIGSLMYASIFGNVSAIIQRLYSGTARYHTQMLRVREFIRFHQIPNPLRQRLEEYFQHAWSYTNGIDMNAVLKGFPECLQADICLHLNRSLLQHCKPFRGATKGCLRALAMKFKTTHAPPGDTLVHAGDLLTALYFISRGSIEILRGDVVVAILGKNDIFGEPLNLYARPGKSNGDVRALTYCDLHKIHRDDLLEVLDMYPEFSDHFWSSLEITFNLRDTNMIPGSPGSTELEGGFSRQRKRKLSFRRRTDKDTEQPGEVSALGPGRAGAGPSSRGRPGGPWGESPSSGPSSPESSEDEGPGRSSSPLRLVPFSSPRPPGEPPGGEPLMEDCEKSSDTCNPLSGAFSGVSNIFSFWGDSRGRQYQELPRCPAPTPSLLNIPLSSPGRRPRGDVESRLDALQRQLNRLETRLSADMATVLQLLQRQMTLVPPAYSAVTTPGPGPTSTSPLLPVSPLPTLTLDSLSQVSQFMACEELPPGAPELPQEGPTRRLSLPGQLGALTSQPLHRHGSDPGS

In turn, `N=C(Nc1ccc(I)cc1)Nc1ccc(I)cc1` gave a Ki in series [1] of 0.003 µM.

Regarding `N=C(NCCCOc1ccc(F)cc1)NCCCOc1ccc(F)cc1`, the inhibition constant (Ki) in series [1] is more than 1 µM.

As to `NC(=NC12CC3CC(CC(C3)C1)C2)Nc1ccc(I)cc1`, the EC50 on Androgen receptor is 9.5 to 9.75 µM. Besides, the IC50 in [2] worked out at 0.491 µM; in [3] it was 2.6 µM.

At Androgen receptor, `COc1ccc(NC(=N)NCCCOc2ccc(F)cc2)cc1` displayed an EC50 of 28.1 µM. For the same molecule, the Ki in series [4] stood at 0.0134 µM. The values for the PPB with Plasma [5] and in the series with Plasma [6] were 82.1% and 75.1%, respectively. Moreover, the half-life is more than 6 h in [7], more than 6 h in series [8], 0.117 h in series [9] and 0.387 h in series [10]. In series [11], this molecule came in with a solubility of 8450 µg/mL (≈ 26.6 mM). Inhibition in series [2] was half-maximal at 0.417 µM (IC50).

As for `N=C(NCCCOc1ccc(F)cc1)Nc1ccc(C(F)(F)F)cc1`, the inhibition constant (Ki) in series [4] came to 0.0453 µM.

Take `N=C(NCCCOc1ccc(F)cc1)Nc1ccc(I)cc1`: the Ki in [4] amounted to 0.0461 µM. Moreover, in the series on MDA-MB-468, the outcome was Active. The results for the PPB with Plasma [5] and in the series with Plasma [6] were 97.9% and 96.6%, respectively. Also, the half-life in [7] is more than 6 h; in [8], more than 6 h; in series [9], 0.41 h; in series [10], more than 1.5 h. This molecule also displayed a solubility in series [11] of 5370 µg/mL (≈ 13 mM). The molecule also had an IC50 in series [2] of 0.109 µM.

As to `CC(=O)O[C@H]1CC[C@@]2(C)C(=CC[C@@H]3[C@@H]2CC[C@]2(C)C(c4cccnc4)=CC[C@@H]32)C1` [ABIRATERONE ACETATE], on Androgen receptor, the EC50 lay within 17 to 17.1 µM.

In the case of `N=C(NCCCOc1ccc(F)cc1)Nc1ccc(Cl)cc1`, the AUC(0-inf) in series [12] was 57 to 71 ng·h/mL; in series [13], 166 ng·h/mL; in [14], 856 ng·h/mL; in series [17], 141 ng·h/mL; in series [19] it was 480 ng·h/mL. The same molecule gave a concentration giving a half-maximal response (EC50) on Androgen receptor of 12.7 µM. Further, the result with MDA-MB-468 was Active. The PPB in the series on Plasma [5] was 88.8%; in the series with Plasma [6], 93.4%. Further, the half-life in series [7] is more than 6 h; in series [8], more than 6 h; in series [9], 0.413 h; in [10], more than 1.5 h; in [18] it was more than 3 h; in series [20], more than 3 h. In addition, the solubility in series [11] worked out at 4580 µg/mL (≈ 14.2 mM). Further, the distribution volume (Vd) in series [15] was in the range of 57.6 to 91 L/kg. The molecule further gave a clearance in series [16] of 469 to 586 mL/min/kg. For the same molecule, in series [21], the Kp is 5. The maximum concentration (Cmax) was found to be 438 nM in the series with Plasma [22], 2150 nM with Brain, 304 nM in the series “in vivo [23]” and 674 nM in the series “in vivo [26]”. Moreover, the values for the Tmax in the series “in vivo [24]” and in “in vivo [27]” were 0.25 h and 1 h, respectively. The AUC(0-t) was 119 ng·h/mL in the series “in vivo [25]” and 414 ng·h/mL in the series “in vivo [28]”.

One may read the Ki as a measure of affinity in units of concentration, obtained from inhibition or displacement. The term EC50 denotes the concentration giving half of the maximal effect. A low value points to greater potency. What is called IC50 is the concentration needed to halve the response being measured. What is called solubility is how much of the substance goes into solution per volume. Low values mean little dissolved substance, high ones much dissolved substance. For orientation: AUC(0-inf) means the area under the concentration-time curve extrapolated to infinity. Read a low AUC(0-inf) as less exposure. One may read the Vd as a proportionality between amount in the body and measured concentration, not a real space. High values mean extensive tissue distribution, low ones confinement near the circulation. A word on the clearance: it is the volume of plasma or blood freed of the substance per unit of time. A word on the Kp: it is tissue or fluid exposure divided by exposure in the circulation. Usually Cmax stands for the highest concentration seen after dosing. As usually defined, the Tmax is the time at which the peak concentration occurs. The term AUC(0-t) denotes the area under the concentration-time curve up to a stated or last time point. Read a low AUC(0-t) as less exposure.

The values are drawn from ChEMBL document CHEMBL4017455, “Novel small molecule guanidine Sigma1 inhibitors for advanced prostate cancer” (Bioorg Med Chem Lett, 2017).
